# Test results as given in patent EP4741401A1, “BENZOTHIAZOIMIDAZOLYL COMPOUND AND USE THEREOF” (ER Stress Research Institute, Inc., priority 2023, dated 2025).
# Assays:
# [1] = system: endoplasmic reticulum stress response induced by Tm; experiment: Suppression of endoplasmic reticulum stress response (ERSE2-UPRE-AARE-EGFP reporter fluorescence); assay type: cell-based; details: 293A reporter cells, incubated at 37°C overnight, read-out: Suppression rank of endoplasmic reticulum stress response
# Protocol: A solution of the compound synthesized in "(1) Synthesis of benzothiazoimidazolyl compound" was appropriately diluted with a DMEM solution containing 10% fetal bovine serum (FBS), and the diluted solution was added to a 384-well assay plate at 10 µL/well. Next, 30 µL of a culture medium containing the reporter cells and 10 µL of the Tm solution were mixed, and the mixture was added to the 384-well assay plate at 40 µL/well such that the cell density was 18 × 10^3 cells/well, and the whole was incubated at 37°C overnight.
# A multi-plate reader Citation 3 (Bio-Tek) was used to determine the EGFP fluorescence intensity (excitation wavelength: 485 nm, fluorescence wavelength: 528 nm) when the test compound was added. A smaller fluorescence intensity indicates more suppression of the increase in activity of the endoplasmic reticulum stress marker induced by Tm.
# A "control" containing the Tm solution and, in place of the test compound solution, an equal volume of DMSO was subjected to the measurement of fluorescence intensity in a similar manner. In addition, a "background" containing a solution prepared in the same manner as for the Tm solution except that no Tm was added and containing, in place of the test compound solution, an equal volume of DMSO was subjected to the measurement of fluorescence intensity in a similar manner.
# The fluorescence intensity was determined while the concentration of the test compound was varied, and the 50% effective concentration (IC50) of suppressing the endoplasmic reticulum stress response induced by Tm was calculated.
# 293A cells = experiment: Cytoprotection under endoplasmic reticulum stress conditions (Tm-induced cell death); assay type: cell-based; details: compound concentration inhibiting Tm-induced cell death by 50%, Tm 0.2 µg/mL, reporter cells
# Protocol: The reporter cells same as those used in Example 1 were placed in each well of a 96-well assay plate and were treated with Tm at a final concentration of 0.2 µg/mL and the test compound. […]
Structure (SMILES),IC50 [1] [nM],IC50 (293A cells) [nM]
"CCCc1ccc(-c2cn3c(n2)sc2cc(S(C)(=O)=O)ccc23)cc1 [IBT-67, 7-(methylsulfonyl)-2-(4-propylphenyl)benzo[d]imidazo[2,1-b]thiazole]",100 to 1000,370
"CCOC(=O)c1ccc2c(c1)sc1nc(-c3ccc(Cl)cc3)cn12 [IBT-45, ethyl 2-(4-chlorophenyl)benzo[d]imidazo[2,1-b]thiazole-7-carboxylate]",100 to 1000,350
"C#CCOc1cc(-c2cn3c(n2)sc2cc(S(C)(=O)=O)ccc23)ccc1Cl [IBT-56, 2-(4-chloro-3-(prop-2-yn-1-yloxy)phenyl)-7-(methylsulfonyl)benzo[d]imidazo[2,1-b]thiazole]",100 to 1000,560
"FC(F)(F)c1ccc(-c2cn3c(n2)sc2c(Br)cccc23)cc1 [IBT-72, 8-bromo-2-(4-(trifluoromethyl)phenyl)benzo[d]imidazo[2,1-b]thiazole]",100 to 1000,630
"CC(C)(C)OC(=O)NCCOCCOCCOc1cccc(-c2cn3c(n2)sc2cc(S(C)(=O)=O)ccc23)c1 [IBT-76, tert-butyl (2-(2-(2-(3-(7-(methylsulfonyl)benzo[d]imidazo[2,1-b]thiazol-2-yl)phenoxy)ethoxy)ethoxy)ethyl)carbamate]",> 1000,4900
"C#CCCC1(CCNC(=O)CCc2ccc3c(c2)sc2nc(-c4ccc(C(F)(F)F)cc4)cn23)N=N1 [IBT-61, N-(2-(3-(but-3-yn-1-yl)-3H-diazirin-3-yl)ethyl)-3-(2-(4-(trifluoromethyl)phenyl)benzo[d]imidazo[2,1-b]thiazol-7-yl)propanamide]",> 1000,4160
"CCOc1ccc(-c2cn3c(n2)sc2cc(S(C)(=O)=O)ccc23)cc1 [IBT-64, 2-(4-ethoxyphenyl)-7-(methylsulfonyl)benzo[d]imidazo[2,1-b]thiazole]",100 to 1000,670
"OCc1ccc2c(c1)sc1nc(-c3ccc(Cl)cc3)cn12 [IBT-59, (2-(4-chlorophenyl)benzo[d]imidazo[2,1-b]thiazol-7-yl)methanol]",100 to 1000,410
"C#CCCC1(CCOc2cccc(-c3cn4c(n3)sc3cc(S(C)(=O)=O)ccc34)c2)N=N1 [IBT-70, 2-(3-(2-(3-(but-3-yn-1-yl)-3H-diazirin-3-yl)ethoxy)phenyl)-7-(methylsulfonyl)benzo[d]imidazo[2,1-b]thiazole 2,2,2-trifluoroacetate]",100 to 1000,430
"CS(=O)(=O)c1ccc2c(c1)sc1nc(-c3ccc(C(F)(F)F)cc3)cn12 [IBT-31, 7-(methylsulfonyl)-2-(4-(trifluoromethyl)phenyl)benzo[d]imidazo[2,1-b]thiazole]",≤ 10,10
"C#CCCC1(CCNC(=O)CCc2cccc3c2sc2nc(-c4ccc(C(F)(F)F)cc4)cn23)N=N1 [IBT-73, N-(2-(3-(but-3-yn-1-yl)-3H-diazirin-3-yl)ethyl)-3-(2-(4-(trifluoromethyl)phenyl)benzo[d]imidazo[2,1-b]thiazol-8-yl)propanamide 2,2,2-trifluoroacetate]",> 1000,8400
"C#CCOc1ccc(-c2cn3c(n2)sc2cc(S(C)(=O)=O)ccc23)cc1 [IBT-41, 7-(methylsulfonyl)-2-(4-(prop-2-yn-1-yloxy)phenyl)benzo[d]imidazo[2,1-b]thiazole 2,2,2-trifluoroacetate]",10 to 100,90
"CC(C)(C)OC(=O)NCCCOc1cc(-c2cn3c(n2)sc2cc(S(C)(=O)=O)ccc23)ccc1Cl [IBT-58, tert-butyl (3-(2-chloro-5-(7-(methylsulfonyl)benzo[d]imidazo[2,1-b]thiazol-2-yl)phenoxy)propyl)carbamate]",> 1000,3200
"CS(=O)(=O)c1ccc2c(c1)sc1nc(-c3ccc(F)cc3)cn12 [IBT-34, 2-(4-fluorophenyl)-7-(methylsulfonyl)benzo[d]imidazo[2,1-b]thiazole]",10 to 100,80
